From US20250228239A1, “MOLECULES HAVING PESTICIDAL UTILITY, AND INTERMEDIATES, COMPOSITIONS, AND PROCESSES, RELATED THERETO” (priority 2024, published 2025)

Experiments:
[1] = test system: Cabbage Looper (Trichoplusia ni, TRIPNI); assay: Bioassays on Cabbage Looper (CL), 128-well diet tray assay; format: in vivo; conditions: Trichoplusia ni; Cabbage Looper; rating class; read-out: CL
Outline: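 One to five second-instar larvae per well on artificial diet surface-treated with 50 μg/cm^2 test molecule (applied in 90:10 acetone-water, dried). Held 5–7 days at 25° C, 14:10 light-dark; percent mortality recorded per well and averaged over eight wells.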

[2] = test system: Beet Armyworm (Spodoptera exigua, LAPHEG); assay: Bioassays on Beet Armyworm (BAW), 128-well diet tray assay; format: in vivo; conditions: Spodoptera exigua; Beet Armyworm; rating class; read-out: BAW
Outline: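 Mortality of second-instar larvae (1–5/well) on artificial diet treated with 50 μg/cm^2 compound, read after 5–7 days at 25° C.; values are means of eight wells.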

Structure (SMILES) | pest or weed control at 50 µg/cm2 [1] [%] | pest or weed control at 50 µg/cm2 [2] [%]
O=C(Nc1c(F)ccc(NC(=O)C(F)(F)C(F)F)c1F)c1cc(NC(=O)[C@H]2[C@H](c3cc(Cl)c(Cl)c(Cl)c3)C2(Cl)Cl)ccc1Cl [F1534, 2-Chloro-5-((1R,3R)-2,2-dichloro-3-(3,4,5-trichlorophenyl)cyclopropane-1-carboxamido)-N-(2,6-difluoro-3-(2,2,3,3-tetrafluoropropanamido)phenyl)benzamide] | 50 to 100 | 50 to 100
O=C(Nc1c(F)ccc(NC(=O)C(F)(F)C(F)F)c1F)c1cc(NC(=O)[C@H]2[C@H](c3ccc(Cl)c(Cl)c3)C2(Cl)Cl)ccc1Cl [F1535, 2-Chloro-5-((1R,3R)-2,2-dichloro-3-(3,4-dichlorophenyl)cyclopropane-1-carboxamido)-N-(2,6-difluoro-3-(2,2,3,3-tetrafluoropropanamido)phenyl)benzamide] | 50 to 100 | 50 to 100
CC(=O)Nc1ccc(F)c(NC(=O)c2cc(NC(=O)[C@H]3[C@H](c4ccc(Cl)c(Cl)c4)C3(Cl)Cl)ccc2Cl)c1F [F1536, N-(3-Acetamido-2,6-difluorophenyl)-2-chloro-5-((1R,3R)-2,2-dichloro-3-(3,4-dichlorophenyl)cyclopropane-1-carboxamido)benzamide] | 50 to 100 | 50 to 100
O=C(Nc1c(F)ccc(NC(=O)C(F)(F)F)c1F)c1cc(NC(=O)[C@H]2[C@H](c3ccc(Cl)c(Cl)c3)C2(Cl)Cl)ccc1Cl [F1537, 2-Chloro-5-((1R,3R)-2,2-dichloro-3-(3,4-dichlorophenyl)cyclopropane-1-carboxamido)-N-(2,6-difluoro-3-(2,2,2-trifluoroacetamido)phenyl)benzamide] | 50 to 100 | 50 to 100
O=C(Nc1c(F)ccc(NC(=O)C(F)(F)F)c1F)c1cc(NC(=O)[C@H]2[C@H](c3ccc(F)c(C(F)(F)F)c3)C2(Cl)Cl)ccc1Cl [F1538, 2-Chloro-5-((1R,3R)-2,2-dichloro-3-(4-fluoro-3-(trifluoromethyl)phenyl)cyclopropane-1-carboxamido)-N-(2,6-difluoro-3-(2,2,2-trifluoroacetamido)phenyl)benzamide] | 50 to 100 | 50 to 100
CC(=O)Nc1cc(NC(=O)c2cc(NC(=O)[C@H]3[C@H](c4ccc(F)c(C(F)(F)F)c4)C3(Cl)Cl)ccc2Cl)c(F)cc1F [F1539, N-(5-Acetamido-2,4-difluorophenyl)-2-chloro-5-((1R,3R)-2,2-dichloro-3-(4-fluoro-3-(trifluoromethyl)phenyl)cyclopropane-1-carboxamido)benzamide] | 50 to 100 | 50 to 100
O=C(Nc1cc(NC(=O)C(F)F)c(F)cc1F)c1cc(NC(=O)[C@H]2[C@H](c3ccc(F)c(C(F)(F)F)c3)C2(Cl)Cl)ccc1Cl [F1540, 2-Chloro-5-((1R,3R)-2,2-dichloro-3-(4-fluoro-3-(trifluoromethyl)phenyl)cyclopropane-1-carboxamido)-N-(5-(2,2-difluoroacetamido)-2,4-difluorophenyl)benzamide] | 50 to 100 | 50 to 100
O=C(Nc1cc(NC(=O)C(F)(F)F)c(F)cc1F)c1cc(NC(=O)[C@H]2[C@H](c3ccc(F)c(C(F)(F)F)c3)C2(Cl)Cl)ccc1Cl [F1541, 2-Chloro-5-((1R,3R)-2,2-dichloro-3-(4-fluoro-3-(trifluoromethyl)phenyl)cyclopropane-1-carboxamido)-N-(2,4-difluoro-5-(2,2,2-trifluoroacetamido)phenyl)benzamide] | 50 to 100 | 50 to 100
CC(=O)Nc1c(F)ccc(NC(=O)c2cc(NC(=O)[C@H]3[C@H](c4ccc(Cl)c(Cl)c4)C3(Cl)Cl)cc(C)c2Cl)c1F [F1543, N-(3-Acetamido-2,4-difluorophenyl)-2-chloro-5-((1R,3R)-2,2-dichloro-3-(3,4-dichlorophenyl)cyclopropane-1-carboxamido)-3-methylbenzamide] | 50 to 100 | 50 to 100
